# Test results as given in patent US10765690B2, “TLR4 agonists and compositions thereof and their use in the treatment of cancer” (GlaxoSmithKline Intellectual Property Development Limited, priority 2015, dated 2020).
# “And” between values parts separate entries of the source, which are not always exact repeats. Equal values may be shown once.
# How the values were obtained:
# [1] = tested on: CT-26 colorectal tumor cells; assay: CT-26 syngeneic colon carcinoma model, escalating i.p. doses (Example 9); assay type: in vivo, Balb/c mice
# Text: The CT26 mouse colon carcinoma (CT26.WT; ATCC #CRL-2638) cell line was obtained from ATCC. It is an N-nitroso-N-methylurethane-(NNMU) induced, undifferentiated colon carcinoma cell line known in the art. For example, it is described in: Wang M, et al. Active immunotherapy of cancer with a nonreplicating recombinant fowlpox virus encoding a model tumor-associated antigen. J. Immunol. 154: 4685-4692, 1995 (PubMed: 7722321), which is incorporated by reference in its entirety herein. For preparation of tumor cells, A frozen (−140° C.) vial of CT-26 (mouse colon carcinoma cells), from ATCC (cat # CRL-2638, lot #59227052) are thawed and cultured in basic RPMI (with 10% FBS) media over the following week.
# CT-26 cells (passage 12) are harvested from the flask in complete medium. Cells are centrifuged and resuspended in RPMI (without FBS), this step is repeated 3 times. Cell density and viability are checked via trypan blue exclusion. Cells are then diluted to desired density (5×10^5 cells per mL) and kept on ice.
# Escalating doses of CRX 527 are evaluated for their efficacy in reducing tumor growth. Animals are weighed and innoculated on the right hind quarter with 0.5×10^5 CT26 tumor cells per mouse on Day 0. A total of 130 mice are inoculated with tumor cells—assuming 30% failure rate (either too big or too small at time of start of study), the goal is to have n=10 for each group. After tumor cell innoculation, tumor growth and total body weight are measured 3 times a week for the duration of the study. Randomization occurs on day 10 or 11 when the average tumor volume is approximately 100 mm^3. Begining on the day of randomization, animals are dosed with CRX 527 or vehicle i.p. biweekly, for a total of 6 doses. Mice remain on study until tumors reach >2000 cu mm for two consecutive measurements, they are removed from study for other reasons (i.e. weight loss >20%, ulceration on tumor, etc.) or until the end of the study. After euthanization the tumors may be removed and subject to dissociation for flow analysis and/or FFPE for IHC analysis.
# The above protocol was used to generate the results in FIG. 17 at the dosages indicated. In almost every case, Balb/c mice that were inoculated with 0.5×10^5 CT-26 colorectal tumor cells on the right hind quarter developed tumors that, when treated i.p. with vehicle (2% glycerol) only, and progressed as expected. […] FIG. 17.
# [2] = tested on: Murine EMT6 breast epithelial cells; assay: EMT6 breast epithelial syngeneic solid tumor model; assay type: in vivo, Balb/c mice
# Method: The in vivo anti-tumor efficacy of the TLR4 agonist (CRX-601) was assessed in the murine EMT6 breast epithelial syngeneic solid tumor model as a monotherapy versus control and anti-PD-1 treatment. Seven to eight week old female Balb/c mice (BALB/cAnNHsd, Envigo) were used in these studies. Murine EMT6 breast epithelial cells (ATCC catalog number lot # CRL-2755) were cultured in RPMI growth medium supplemented with 10% fetal bovine serum (FBS) in a humidified 37° C. incubator with 5% CO2. EMT6 cells cultured in logarithmic growth were harvested from tissue culture flasks and centrifuged for 5 minutes at 450×g at 4° C. for ten minutes to pellet cells. The supernatant was discarded, and cells were washed in ice cold phosphate buffered saline (PBS) without calcium and magnesium and centrifuged again for 5 minutes at 450×g at 4′C for ten minutes to pellet cells. The cells were resuspended in sterile RPMI media without FBS and adjusted to a cell concentration of 1×10^6 cells/ml. 100 μl of the cell stock was implanted via subcutaneous injection into the right flank of each Balb/c mouse. After seven or nine days when the average tumor size reached approximately 100 mm^3, mice were randomized into study cohorts according to tumor size and the first treatment dose was given. The TLR4 agonist (CRX-601) or vehicle was dosed via a systemic intravenous dose once per week for three total doses. The CRX-601 vehicle was 0.5% Glycerol/4% Dextrose, eE 810115-V. The rat anti-mouse PD-1 receptor antibody (clone RMP1-14, BioXCell catalog # BE0146, lot #5792-599016J1) or Rat IgG2a isotype control antibody (BioXCell catalog # BE0089,lot #601416M1B) was dosed via an intraperitoneal injection given every other day for a total of three doses, with the first dose given concurrently with the first CRX-601 dose. Caliper measurements were taken three times per week to assess tumor growth, and mice with tumors >2,000 mm^3 for 2 consecutive measurements or mice with tumors which formed open ulcers were removed from the study. Tumor volume was calculated using the formula (0.52)×(Length)×(Width2). All studies were conducted in accordance with the GSK Policy on the Care, Welfare and Treatment of Laboratory Animals and were reviewed by the Institutional Animal Care and Use Committee at GSK. To determine significance of tumor growth inhibition, tumor volumes 19 days post first dose were compared between the different treatment groups. Treatments were compared by standard ANOVA methods followed by FDR adjustment for multiplicity. Response is square root of volume, for homoscedasticity (equal variance) reasons. Kaplan-Meier (KM) method was carried out to estimate the survival probability of different treatment groups at a given time. For these survival analyses, “Death” means crossing the tumor volume cutoff (2000 mm3). “Survival” means proportion of mice not “Dead”, and “Survival time” means days until “Death”. If a mouse crossed the volume cutoff between two measurement days, then the day of “Death” was estimated by linear interpolation. If a mouse crossed the volume cutoff more than once, the first crossing was used. Treatments were compared by the standard log-rank test for two treatments. The log-rank p-values were adjusted for multiplicity using the FDR (false discovery rate) method. Significance was defined as FDR<=0.05. All calculations and graphs were done using R software, version 3.2.3.
compound,measurement,setting,value
CCCCCCCCCCC[C@H](CC(=O)N[C@H]1[C@H](OC[C@H](NC(=O)C[C@@H](CCCCCCCCCCC)OCCCCCCCCCC)C(=O)O)O[C@H](CO)[C@@H](OP(=O)(O)O)[C@@H]1OC(=O)C[C@@H](CCCCCCCCCCC)OCCCCCCCCCC)OCCCCCCCCCC [CRX-601],Mean % Inhibition,"[1]; 4 ug, study day 14 (9/16)",−59.63%
same,Mean % Inhibition,"[1]; 4 ug, study day 17 (9/19)",4.57%
same,Mean % Inhibition,"[1]; 4 ug, study day 21 (9/23)",−1.55%
same,Mean % Inhibition,"[1]; 4 ug, study day 24 (9/26)",21.73%
same,Mean % Inhibition,"[1]; 4 ug, study day 28 (9/30)",7.65%
same,Mean % Inhibition,"[1]; 4 ug, study day 31 (10/3)",−34.14%
same,Mean % Inhibition,"[1]; 20 ug, study day 14 (9/16)",42.34%
same,Mean % Inhibition,"[1]; 20 ug, study day 17 (9/19)",69.46%
same,Mean % Inhibition,"[1]; 20 ug, study day 21 (9/23)",50.75%
same,Mean % Inhibition,"[1]; 20 ug, study day 24 (9/26)",66.96%
same,Mean % Inhibition,"[1]; 20 ug, study day 28 (9/30)",50.75%
same,Mean % Inhibition,"[1]; 20 ug, study day 31 (10/3)",−18.27%
same,Mean % Inhibition,"[1]; 100 ug, study day 14 (9/16)",68.20%
same,Mean % Inhibition,"[1]; 100 ug, study day 17 (9/19)",92.51%
same,Mean % Inhibition,"[1]; 100 ug, study day 21 (9/23)",98.50%
same,Mean % Inhibition,"[1]; 100 ug, study day 24 (9/26)",93.21%
same,Mean % Inhibition,"[1]; 100 ug, study day 28 (9/30)",94.68%
same,Mean % Inhibition,"[1]; 100 ug, study day 31 (10/3)",80.15%
same,increase in survival compared to vehicle group 1,"[2]; 25 ug CRX-601 IV, by day 33 post EMT6 inoculation, p-value=0.03",statistically significant
same,mice remained on study,"[2]; 25 ug CRX-601 group, day 33",6 mice
same,tumor free mice,"[2]; 25 ug CRX-601 group, day 33",4 mice
same,tumor volumes of remaining tumor-bearing mice,"[2]; 25 ug CRX-601 group, day 33, individual mice",649 mm^3 and 382 mm^3
same,tumor growth inhibition compared to vehicle group 1,"[2]; 25 ug CRX-601 intravenous once per week x3 (+200 ug Rat IgG2a), 19 days after the initial dose, p-value<0.001",statistically significant tumor growth inhibition
same,tumor growth inhibition compared to anti-PD-1 treatment group 3,"[2]; 25 ug CRX-601 intravenous once per week x3, 19 days after the initial dose, p-value=0.041",statistically significant tumor growth inhibition
